Test system: Plasmodium falciparum (Fab-9)
Assay: 3H-hypoxanthine uptake, chloroquine sensitive strain Fab-9
Assay type: cell-based
Conditions: for PERCENTAGE INHIBITION (3H-hypoxanthine uptake): Fab-9
Protocol: The following experiment was done to confirm previous results which were obtained microscopically and details of which are set out in Example 1.
For this experiment the same two strains of P. falciparum, as used in Example 1 (RB-1 and Fab-9) were again used. Infected erythrocytes were diluted with human O-positive red blood cells to a parasitaemia of 0.2-0.9% and suspended to 3% in RPMI containing 44 mg/l hypxanthine and 10% human type serum. Aliquots (100 μl) of the suspension were dispensed into the wells of 96-well microtitre plates. To these suspensions 100 μl of the medium were added containing either chloroquine or B669 alone or a combination of chloroquine and B669. Relevant solvent controls were included. Negative control wells were also included containing uninfected red blood cells. The plates were incubated at 38° C. in a desiccator gassed with 5% O2, 5% CO2 and 90% N2. After 24 hours 100 μl culture medium of each well was replaced with […] of hypoxathine--free medium containing 10% human serum and 0,5μ Ci^3 H-hypoxanthine and incubated for a further 18 hours. The contents of the wells were then harvested on to glass fibre filters. The filters were washed with distilled water, dried, haemoglobin dissolved in a sodium bicarbonate solution and placed in scintillation vials containing 4 ml scintillation fluid and counted for 5 min in a liquid scintillation counter.
The percentage inhibition was calculated as follows: [formula] where CPM was the mean of two values of counts per minute for each treatment.

c1ccc(Nc2cc3nc4ccccc4n(-c4ccccc4)c-3cc2=NC2CCCCC2)cc1 [Compound B669, N,5-bis(phenyl)-3,5-dihydro-3-(cyclohexylimino)-2-phenazinamine]
effect on sensitivity of chloroquine sensitive strain to chloroquine (3H-hypoxanthine uptake): did not increase the sensitivity | sensitivity of chloroquine sensitive strain to B669 alone (B669 alone 0.125-1.0 μg/ml): sensitive to B669 alone | PERCENTAGE INHIBITION (3H-hypoxanthine uptake) (B669 0.125 μg/ml + chloroquine 31 nM): 12.9% | PERCENTAGE INHIBITION (3H-hypoxanthine uptake) (B669 0.125 μg/ml + chloroquine 62 nM): 7.4% | PERCENTAGE INHIBITION (3H-hypoxanthine uptake) (B669 0.125 μg/ml + chloroquine 125 nM): 68.3% | PERCENTAGE INHIBITION (3H-hypoxanthine uptake) (B669 0.125 μg/ml + chloroquine 250 nM): 81.4% | PERCENTAGE INHIBITION (3H-hypoxanthine uptake) (B669 0.125 μg/ml + chloroquine 500 nM): 100% | PERCENTAGE INHIBITION (3H-hypoxanthine uptake) (B669 0.125 μg/ml + chloroquine 1000 nM): 100% | PERCENTAGE INHIBITION (3H-hypoxanthine uptake) (B669 0.25 μg/ml + chloroquine 31 nM): 21.0% | PERCENTAGE INHIBITION (3H-hypoxanthine uptake) (B669 0.25 μg/ml + chloroquine 62 nM): 0% | PERCENTAGE INHIBITION (3H-hypoxanthine uptake) (B669 0.25 μg/ml + chloroquine 125 nM): 34.9% | PERCENTAGE INHIBITION (3H-hypoxanthine uptake) (B669 0.25 μg/ml + chloroquine 250 nM): 85.5% | PERCENTAGE INHIBITION (3H-hypoxanthine uptake) (B669 0.25 μg/ml + chloroquine 500 nM): 100% | PERCENTAGE INHIBITION (3H-hypoxanthine uptake) (B669 0.25 μg/ml + chloroquine 1000 nM): 100% | PERCENTAGE INHIBITION (3H-hypoxanthine uptake) (B669 0.5 μg/ml + chloroquine 31 nM): 60.5% | PERCENTAGE INHIBITION (3H-hypoxanthine uptake) (B669 0.5 μg/ml + chloroquine 62 nM): 91.7% | PERCENTAGE INHIBITION (3H-hypoxanthine uptake) (B669 0.5 μg/ml + chloroquine 125 nM): 93.6% | PERCENTAGE INHIBITION (3H-hypoxanthine uptake) (B669 0.5 μg/ml + chloroquine 250 nM): 100% | PERCENTAGE INHIBITION (3H-hypoxanthine uptake) (B669 0.5 μg/ml + chloroquine 500 nM): 100% | PERCENTAGE INHIBITION (3H-hypoxanthine uptake) (B669 0.5 μg/ml + chloroquine 1000 nM): 100% | PERCENTAGE INHIBITION (3H-hypoxanthine uptake) (B669 1.0 μg/ml + chloroquine 31 nM): 98.8% | PERCENTAGE INHIBITION (3H-hypoxanthine uptake) (B669 1.0 μg/ml + chloroquine 62 nM): 95.9% | PERCENTAGE INHIBITION (3H-hypoxanthine uptake) (B669 1.0 μg/ml + chloroquine 125 nM): 100% | PERCENTAGE INHIBITION (3H-hypoxanthine uptake) (B669 1.0 μg/ml + chloroquine 250 nM): 100% | PERCENTAGE INHIBITION (3H-hypoxanthine uptake) (B669 1.0 μg/ml + chloroquine 500 nM): 100% | PERCENTAGE INHIBITION (3H-hypoxanthine uptake) (B669 1.0 μg/ml + chloroquine 1000 nM): 100% | direct anti-malaria activity (especially chloroquine sensitive strain): Direct anti-malaria activity

Reference: US5763442A, “Anti-parasitic activity” (Universiteit Van Pretoria, priority 1995, dated 1998)
